The data set relates to DMPK. In words: DMPK knockdown by transfected antisense oligonucleotides in DM1 C15 myotubes at 0.5 nM and 50 nM. The format is cell-based. The note with it: 72 hours; for Normalized DMPK Remaining: relative to vehicle control = 1.00. An outline of the steps: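 Seven-day-differentiated DM1 C15 myotubes transfected (Lipofectamine MessengerMax) with each oligonucleotide at 0.5 nM or 50 nM final, biological triplicates. After 72 h, DMPK mRNA quantified by qPCR, expressed relative to vehicle-only transfection set to 1.00.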

Where [1] appears, read: 0.5 nM oligonucleotide, qPCR, relative to vehicle control.
The mark [2] stands for this setting: 50 nM oligonucleotide, qPCR, relative to vehicle control.

In the case of “475 (GCCUCAGCCUGGCCGAAAGA; chemistry not given here) [compound 475]”, the “Percent DMPK Reduction” value (0.5 nM oligonucleotide) is -4.82% and the “Percent DMPK Reduction” value (50 nM oligonucleotide) is given as 63.11%. Also, the “Normalized DMPK Remaining” value (0.5 nM oligonucleotide) was found to be 1.05 and the “Normalized DMPK Remaining” value (50 nM oligonucleotide) was 0.37.
For “311 (CUCAGCCUCUGCCGCAGGGA; chemistry not given here) [compound 311]”, the “Percent DMPK Reduction” value is 17.86% under setting [1] and 79.58% under setting [2]. The “Normalized DMPK Remaining” value was 0.82 (0.5 nM oligonucleotide, qPCR) and 0.20 (50 nM oligonucleotide, qPCR).
Take “315 (GCUCCUGGGCGGCGCCAGAC; chemistry not given here) [compound 315]”: the “Percent DMPK Reduction” value by setting is: under setting [1], 8.52%; under setting [2], 78.79%. In addition, the “Normalized DMPK Remaining” value (0.5 nM oligonucleotide, qPCR) is listed as 0.91 and the “Normalized DMPK Remaining” value (50 nM oligonucleotide, qPCR) was determined as 0.21.
As to “385 (GUUGGCCGGCGUGGGCCACC; chemistry not given here) [compound 385]”, the “Percent DMPK Reduction” value (0.5 nM oligonucleotide) is recorded as -1.82% and the “Percent DMPK Reduction” value (50 nM oligonucleotide) is on record as 43.57%. The “Normalized DMPK Remaining” value is given as 1.02 (0.5 nM oligonucleotide) and 0.56 (50 nM oligonucleotide).
In the case of “355 (CCCGUCUGCUUCAUCUUCAC; chemistry not given here) [compound 355]”, the “Percent DMPK Reduction” value stood at 20.31% under setting [1] and 43.97% under setting [2]. For the same substance, the “Normalized DMPK Remaining” value reads like this: (0.5 nM oligonucleotide, qPCR) 0.80; (50 nM oligonucleotide, qPCR) 0.56.
For “282 (AAAGCGCCUCCGAUAGGCCA; chemistry not given here) [compound 282]” the same measures were 19.89%, 62.04%, 0.80 and 0.38.
“407 (CCAAACUUGCTCAGCAGUGU; chemistry not given here) [compound 407]”: where the note is “0.5 nM oligonucleotide”, the “Percent DMPK Reduction” value is reported as 23.64% and the “Normalized DMPK Remaining” value is given as 0.76. For the same substance, for the setting “50 nM oligonucleotide”, the “Percent DMPK Reduction” value is 57.70% and the “Normalized DMPK Remaining” value is listed as 0.42.
On to “477 (CAGCGGCAGAGAGAGGUGCT; chemistry not given here) [compound 477]”, for which the “Percent DMPK Reduction” value is 4.49% (0.5 nM oligonucleotide) and 86.00% (50 nM oligonucleotide). The “Normalized DMPK Remaining” value (0.5 nM oligonucleotide) came out at 0.96 and the “Normalized DMPK Remaining” value (50 nM oligonucleotide) came to 0.14.
The matching figures for “449 (CCUCUGCCUCGCGUAGUUGA; chemistry not given here) [compound 449]”: 7.39%, 85.33%, 0.93 and 0.15.
For the substance “271 (CCCACGUAAUACUCCAUGAC; chemistry not given here) [compound 271]”, the “Percent DMPK Reduction” value reads like this: under setting [1], 28.21%; under setting [2], 45.94%. For the same substance, the “Normalized DMPK Remaining” value (0.5 nM oligonucleotide, qPCR) is given as 0.72 and the “Normalized DMPK Remaining” value (50 nM oligonucleotide, qPCR) was 0.54.
Take “330 (CCAGCGCCCACCAGUCACAC; chemistry not given here) [compound 330]”: the “Percent DMPK Reduction” value under setting [1] is on record as 36.17% and the “Percent DMPK Reduction” value under setting [2] came to 70.96%. Further, the “Normalized DMPK Remaining” value came out at 0.64 (0.5 nM oligonucleotide, qPCR) and 0.29 (50 nM oligonucleotide, qPCR).
On to “446 (AGCGGCAGAGAGAGGUGCUC; chemistry not given here) [compound 446]”, for which, where the note is “0.5 nM oligonucleotide”, the “Percent DMPK Reduction” value amounted to 19.75% and the “Normalized DMPK Remaining” value is recorded as 0.80. Moreover, under “50 nM oligonucleotide”, the “Percent DMPK Reduction” value was 90.71% and the “Normalized DMPK Remaining” value stood at 0.09.
Turning to “473 (CUUGUAGUGGACGAUCUUGC; chemistry not given here) [compound 473]”, the “Percent DMPK Reduction” value (0.5 nM oligonucleotide) is listed as 24.09% and the “Percent DMPK Reduction” value (50 nM oligonucleotide) is given as 89.16%. For the same substance, the “Normalized DMPK Remaining” value was determined as 0.76 (0.5 nM oligonucleotide) and 0.11 (50 nM oligonucleotide).
As to “332 (AAUCUCCGCCAGGUAGAAGC; chemistry not given here) [compound 332]”, the “Percent DMPK Reduction” value is 35.85% under setting [1] and 65.27% under setting [2]. The “Normalized DMPK Remaining” value is listed as 0.64 (0.5 nM oligonucleotide, qPCR) and 0.35 (50 nM oligonucleotide, qPCR).
Turning to “309 (CACAGCGGUCCAGCAGGAUG; chemistry not given here) [compound 309]”, the “Percent DMPK Reduction” value is, setting by setting: under setting [1], 6.62%; under setting [2], 59.58%. Further, the “Normalized DMPK Remaining” value (0.5 nM oligonucleotide, qPCR) is 0.93 and the “Normalized DMPK Remaining” value (50 nM oligonucleotide, qPCR) came to 0.40.
In the case of “397 (GGACAGACAAUAAAUACCGA; chemistry not given here) [compound 397]”, the “Percent DMPK Reduction” value (0.5 nM oligonucleotide) is given as 22.57% and the “Percent DMPK Reduction” value (50 nM oligonucleotide) is recorded as 52.51%. Besides, the “Normalized DMPK Remaining” value (0.5 nM oligonucleotide) is given as 0.77 and the “Normalized DMPK Remaining” value (50 nM oligonucleotide) was determined as 0.47.
The matching figures for “425 (ACCAGGUACAGGUAGUUCUC; chemistry not given here) [compound 425]”: 16.09%, 76.96%, 0.84 and 0.23.
On to “337 (GUUUGCCCAUCCACGUCAGG; chemistry not given here) [compound 337]”, for which the “Percent DMPK Reduction” value runs as follows: under setting [1], 34.36%; under setting [2], 54.49%. The “Normalized DMPK Remaining” value runs as follows: (0.5 nM oligonucleotide, qPCR) 0.66; (50 nM oligonucleotide, qPCR) 0.46.
In the case of “391 (UCACCAACACGUCCCUCUCC; chemistry not given here) [compound 391]”, under “0.5 nM oligonucleotide”, the “Percent DMPK Reduction” value stood at 47.12% and the “Normalized DMPK Remaining” value was 0.53. Also, where the note is “50 nM oligonucleotide”, the “Percent DMPK Reduction” value is 84.09% and the “Normalized DMPK Remaining” value is given as 0.16.
As for “422 (GUAGUUCUCAUCCUGGAAGG; chemistry not given here) [compound 422]”, for the setting “0.5 nM oligonucleotide”, the “Percent DMPK Reduction” value came to 7.43% and the “Normalized DMPK Remaining” value is 0.93. Besides, under “50 nM oligonucleotide”, the “Percent DMPK Reduction” value is recorded as 55.09% and the “Normalized DMPK Remaining” value came out at 0.45.
In the case of “399 (GGCACGAGACAGAACAACGG; chemistry not given here) [compound 399]”, where the note is “0.5 nM oligonucleotide”, the “Percent DMPK Reduction” value is recorded as 16.10% and the “Normalized DMPK Remaining” value is on record as 0.84. Besides, under “50 nM oligonucleotide”, the “Percent DMPK Reduction” value turned out to be 68.01% and the “Normalized DMPK Remaining” value was 0.32.
In the case of “412 (AGGUACAGGUAGUUCUCAUC; chemistry not given here) [compound 412]”, where the note is “0.5 nM oligonucleotide”, the “Percent DMPK Reduction” value stood at 18.68% and the “Normalized DMPK Remaining” value turned out to be 0.81. In addition, where the note is “50 nM oligonucleotide”, the “Percent DMPK Reduction” value was determined as 58.92% and the “Normalized DMPK Remaining” value was 0.41.
Regarding “402 (GACAAUCUCCGCCAGGUAGA; chemistry not given here) [compound 402]”, for the setting “0.5 nM oligonucleotide”, the “Percent DMPK Reduction” value is listed as 23.70% and the “Normalized DMPK Remaining” value is 0.76. For the setting “50 nM oligonucleotide”, the “Percent DMPK Reduction” value is recorded as 49.82% and the “Normalized DMPK Remaining” value is given as 0.50.
Turning to “344 (UCUGCCGCAGGGACAGCCGC; chemistry not given here) [compound 344]”, the “Percent DMPK Reduction” value reads like this: under setting [1], 22.97%; under setting [2], 82.10%. Moreover, the “Normalized DMPK Remaining” value came to 0.77 (0.5 nM oligonucleotide, qPCR) and 0.18 (50 nM oligonucleotide, qPCR).
As for “400 (UGACCAGGUACAGGUAGUUC; chemistry not given here) [compound 400]”, under “0.5 nM oligonucleotide”, the “Percent DMPK Reduction” value is reported as 22.00% and the “Normalized DMPK Remaining” value is recorded as 0.78. Under “50 nM oligonucleotide”, the “Percent DMPK Reduction” value is 63.73% and the “Normalized DMPK Remaining” value is 0.36.
Turning to “365 (UCUCAGUGCAUCCAAAACGU; chemistry not given here) [compound 365]”, the “Percent DMPK Reduction” value by setting is: under setting [1], 10.88%; under setting [2], 51.34%. In addition, the “Normalized DMPK Remaining” value was determined as 0.89 (0.5 nM oligonucleotide, qPCR) and 0.49 (50 nM oligonucleotide, qPCR).
As for “406 (ACAGGUAGUUCUCAUCCUGG; chemistry not given here) [compound 406]”, where the note is “0.5 nM oligonucleotide”, the “Percent DMPK Reduction” value amounted to 20.51% and the “Normalized DMPK Remaining” value came to 0.79. Further, where the note is “50 nM oligonucleotide”, the “Percent DMPK Reduction” value is 85.36% and the “Normalized DMPK Remaining” value is 0.15.
As to “361 (GCCAUGACAAUCUCCGCCAG; chemistry not given here) [compound 361]”, the “Percent DMPK Reduction” value runs as follows: under setting [1], 30.96%; under setting [2], 81.00%. The “Normalized DMPK Remaining” value (0.5 nM oligonucleotide, qPCR) is listed as 0.69 and the “Normalized DMPK Remaining” value (50 nM oligonucleotide, qPCR) is given as 0.19.
As for “308 (UGACAAUCUCCGCCAGGUAG; chemistry not given here) [compound 308]”, the “Percent DMPK Reduction” value is reported as 38.86% under setting [1] and 66.56% under setting [2]. The “Normalized DMPK Remaining” value runs as follows: (0.5 nM oligonucleotide, qPCR) 0.61; (50 nM oligonucleotide, qPCR) 0.33.
For “251 (CUCGGCCGGAAUCCGCUCCC; chemistry not given here) [compound 251]” the same measures were 28.64%, 64.75%, 0.71 and 0.35.
As to “306 (AGGGACAGCCGCUGGAACTG; chemistry not given here) [compound 306]”, the “Percent DMPK Reduction” value runs as follows: under setting [1], 28.72%; under setting [2], 45.34%. For the same substance, the “Normalized DMPK Remaining” value reads like this: (0.5 nM oligonucleotide, qPCR) 0.71; (50 nM oligonucleotide, qPCR) 0.55.
For the substance “345 (AAGCGCCUCCGAUAGGCCAG; chemistry not given here) [compound 345]”, the “Percent DMPK Reduction” value is, setting by setting: under setting [1], 8.91%; under setting [2], 43.93%. Moreover, the “Normalized DMPK Remaining” value reads like this: (0.5 nM oligonucleotide, qPCR) 0.91; (50 nM oligonucleotide, qPCR) 0.56.
